Source: ChEMBL document CHEMBL4480432, “Expansion of a novel lead targeting M. tuberculosis DHFR as antitubercular agents” (Bioorg Med Chem, 2019)

How the values were obtained:
[1] = Sub-acute toxicity in albino Wistar rat assessed as effect on water intake at 1.25 to 10 mg/kg, po administered for 28 days measured post last dose; type: organism-based; details: in vivo, 672 h
[2] = Sub-acute toxicity in albino Wistar rat assessed as mortality at 1.25 to 10 mg/kg, po administered for 28 days; type: organism-based; details: in vivo, 672 h
[3] = Sub-acute toxicity in albino Wistar rat assessed as change in hemoglobin level at 2.5 mg/kg, po administered for 28 days measured post last dose (reference value: 12.14 +/- 1.45 g%); type: organism-based; details: in vivo, 672 h
[4] = Sub-acute toxicity in albino Wistar rat assessed as change in CAT level per mg protein at 2.5 mg/kg, po administered for 28 days measured post last dose (reference value: 28.45 +/- 2.1 U); type: organism-based; details: in vivo, 672 h
[5] = Sub-acute toxicity in albino Wistar rat assessed as effect on neurological changes at 1.25 to 10 mg/kg, po administered for 28 days; type: organism-based; details: in vivo, 672 h
[6] = Sub-acute toxicity in albino Wistar rat assessed as change in SOD level per mg protein at 5 mg/kg, po administered for 28 days measured post last dose (reference value: 4.85 +/- 0.34 U); type: organism-based; details: in vivo, 672 h
[7] = Sub-acute toxicity in albino Wistar rat assessed as change in serum protein level at 10 mg/kg, po administered for 28 days measured post last dose (reference value: […]); type: organism-based; details: in vivo, 672 h
[8] = Sub-acute toxicity in albino Wistar rat assessed as change in hemoglobin level at 1.25 mg/kg, po administered for 28 days measured post last dose (reference value: 12.14 +/- 1.45 g%); type: organism-based; details: in vivo, 672 h
[9] = Sub-acute toxicity in albino Wistar rat assessed as change in ALT level at 2.5 mg/kg, po administered for 28 days measured post last dose (reference value: 12.19 +/- 1.78 U/L); type: organism-based; details: in vivo, 672 h
[10] = Sub-acute toxicity in albino Wistar rat assessed as change in CAT level per mg protein at 5 mg/kg, po administered for 28 days measured post last dose (reference value: 28.45 +/- 2.1 U); type: organism-based; details: in vivo, 672 h
[11] = Sub-acute toxicity in albino Wistar rat assessed as effect on skin at 1.25 to 10 mg/kg, po administered for 28 days; type: organism-based; details: in vivo, 672 h
[12] = Sub-acute toxicity in albino Wistar rat assessed as change in MDA level per mg protein at 5 mg/kg, po administered for 28 days measured post last dose (reference value: 0.91 +/- 0.1 nmol); type: organism-based; details: in vivo, 672 h
[13] = Sub-acute toxicity in albino Wistar rat assessed as effect on food intake at 1.25 to 10 mg/kg, po administered for 28 days measured post last dose; type: organism-based; details: in vivo, 672 h
[14] = Sub-acute toxicity in albino Wistar rat assessed as change in serum protein level at 2.5 mg/kg, po administered for 28 days measured post last dose (reference value: […]); type: organism-based; details: in vivo, 672 h
[15] = Sub-acute toxicity in albino Wistar rat assessed as change in body weight at 1.25 to 10 mg/kg, po administered for 28 days; type: organism-based; details: in vivo, 672 h
[16] = Sub-acute toxicity in albino Wistar rat assessed as change in serum protein level at 5 mg/kg, po administered for 28 days measured post last dose (reference value: […]); type: organism-based; details: in vivo, 672 h
[17] = Sub-acute toxicity in albino Wistar rat assessed as effect on clinical changes at 1.25 to 10 mg/kg, po administered for 28 days; type: organism-based; details: in vivo, 672 h
[18] = Sub-acute toxicity in albino Wistar rat assessed as change in Urea level at 5 mg/kg, po administered for 28 days measured post last dose (reference value: 24.54 +/- 2.12 mg/dl); type: organism-based; details: in vivo, 672 h
[19] = Sub-acute toxicity in albino Wistar rat assessed as change in central nervous system at 1.25 to 10 mg/kg, po administered for 28 days; type: organism-based; details: in vivo, 672 h
[20] = Sub-acute toxicity in albino Wistar rat assessed as change in serum protein level at 1.25 mg/kg, po administered for 28 days measured post last dose (reference value: […]); type: organism-based; details: in vivo, 672 h
[21] = Sub-acute toxicity in albino Wistar rat assessed as convulsion at 1.25 to 10 mg/kg, po administered for 28 days; type: organism-based; details: in vivo, 672 h
[22] = Sub-acute toxicity in albino Wistar rat assessed as tremors at 1.25 to 10 mg/kg, po administered for 28 days; type: organism-based; details: in vivo, 672 h
[23] = Sub-acute toxicity in albino Wistar rat assessed as effect on sleep at 1.25 to 10 mg/kg, po administered for 28 days; type: organism-based; details: in vivo, 672 h
[24] = Sub-acute toxicity in albino Wistar rat assessed as change in Urea level at 1.25 mg/kg, po administered for 28 days measured post last dose (reference value: 24.54 +/- 2.12 mg/dl); type: organism-based; details: in vivo, 672 h
Dihydrofolate reductase = target: T1, Dihydrofolate reductase (Homo sapiens, UniProt P00374); assay: Inhibition of human DHFR assessed as reduction in consumption of NADPH using DHF as substrate preincubated for 1 min followed by DHF addition and measured for 2 mins by spectrophotometric method
T1 sequence (P00374 whole entry): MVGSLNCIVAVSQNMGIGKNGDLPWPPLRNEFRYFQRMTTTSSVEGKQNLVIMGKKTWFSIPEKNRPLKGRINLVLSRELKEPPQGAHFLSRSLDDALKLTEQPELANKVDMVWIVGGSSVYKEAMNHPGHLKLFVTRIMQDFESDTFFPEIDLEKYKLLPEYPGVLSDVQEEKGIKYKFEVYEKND

[25] = Sub-acute toxicity in albino Wistar rat assessed as change in respiration at 1.25 to 10 mg/kg, po administered for 28 days; type: organism-based; details: in vivo, 672 h
[26] = Sub-acute toxicity in albino Wistar rat assessed as change in hemoglobin level at 5 mg/kg, po administered for 28 days measured post last dose (reference value: 12.14 +/- 1.45 g%); type: organism-based; details: in vivo, 672 h
[27] = Sub-acute toxicity in albino Wistar rat assessed as change in AST level at 5 mg/kg, po administered for 28 days measured post last dose (reference value: 25 +/- 1.76 U/L); type: organism-based; details: in vivo, 672 h
[28] = Sub-acute toxicity in albino Wistar rat assessed as lethargy at 1.25 to 10 mg/kg, po administered for 28 days; type: organism-based; details: in vivo, 672 h
[29] = Sub-acute toxicity in albino Wistar rat assessed as effect on eyes at 1.25 to 10 mg/kg, po administered for 28 days; type: organism-based; details: in vivo, 672 h
[30] = Sub-acute toxicity in albino Wistar rat assessed as change in CAT level per mg protein at 1.25 mg/kg, po administered for 28 days measured post last dose (reference value: 28.45 +/- 2.1 U); type: organism-based; details: in vivo, 672 h
[31] = Sub-acute toxicity in albino Wistar rat assessed as diarrhea at 1.25 to 10 mg/kg, po administered for 28 days; type: organism-based; details: in vivo, 672 h
[32] = Sub-acute toxicity in albino Wistar rat assessed as change in Urea level at 2.5 mg/kg, po administered for 28 days measured post last dose (reference value: 24.54 +/- 2.12 mg/dl); type: organism-based; details: in vivo, 672 h
[33] = Sub-acute toxicity in albino Wistar rat assessed as change in AST level at 1.25 mg/kg, po administered for 28 days measured post last dose (reference value: 22.5 +/- 1.76 U/L); type: organism-based; details: in vivo, 672 h

For CC(=O)c1c(C)n(Cc2ccccc2)c2ccc(OCc3cn(-c4ccc(Br)cc4)nn3)cc12, the Activity [1] was “Non-Toxic”, the Activity [2] was “Non-Toxic” and the Activity [3] was 12.83 g%. For the same compound, the Activity [4] was 30.11 U, the Activity [5] was “Non-Toxic” and the Activity [6] was 5.21 U. For the same compound, the Activity [7] was 7.76 mg/dL, the Activity [8] was 12.12 g% and the Activity [9] was 12.68 U/L. The Activity [10] was 31.34 U, the Activity [11] was “Non-Toxic” and the Activity [12] was 1.11 nmol. The Activity [13] was “Non-Toxic”, the Activity [14] was 7.32 mg/dL and the Activity [15] was “Toxic”. The Activity [16] was 7.54 mg/dL, the Activity [17] was “Non-Toxic” and the Activity [18] was 26.43 mg/dL. For the same compound, the Activity [19] was “Non-Toxic”, the Activity [20] was 6.65 mg/dL and the Activity [21] was “Non-Toxic”. For the same compound, the Activity [22] was “Non-Toxic”, the Activity [23] was “Non-Toxic” and the Activity [24] was 25.12 mg/dL. For the same compound, the IC50 (Dihydrofolate reductase) was 125 µM, the Activity [25] was “Non-Toxic” and the Activity [26] was 13.45 g%. For the same compound, the Activity [27] was 26.75 U/L, the Activity [28] was “Non-Toxic” and the Activity [29] was “Non-Toxic”. The Activity [30] was 29.34 U, the Activity [31] was “Non-Toxic” and the Activity [32] was 26.54 mg/dL. For the same compound, the Activity [33] was 23.43 U/L.
